Tests used:
Trastuzumab [1] = test: Induction of polyreactivity of Trastuzumab by heme derivatives; type: binding; conditions: for induction of polyreactivity of Trastuzumab: exposure of Trastuzumab to the compound; for rank of potential to induce polyreactivity: reactivity towards bacterial antigens
Trastuzumab [2] = test: Size-exclusion chromatography, induction of Trastuzumab oligomers by heme or heme analogues; type: physicochemical
immobilized Trastuzumab = test: ELISA induction of antibody homophilicity by heme; type: binding
Protocol: The plates were blocked with PBS 0.25% containing Tween 20 for 1 hour. […] IgG was then diluted two times in PBS-T before incubation on plates for 2 h at room temperature. Following extensive washing, the plates were incubated for 30 min with streptavidin-HRP (Southern Biotech).
IgG was then diluted ten times in PBS-T before incubation on the plates for 2 h at room temperature.

Trastuzumab [3] = test: SPR binding kinetics and thermodynamics of heme to immobilized Trastuzumab
Protocol: Trastuzumab was immobilized on a CMS sensor chip (Biacore) by using amine-coupling kit provided by the manufacturer. The Ab was diluted in 5 mM maleic acid (pH 4) to a final concentration of 10 μg/ml. The achieved immobilization level was 6300 resonance unit (RU). All measurements were performed using HBS-EP (0.01M HEPES, pH 7.4 containing 0.15 M NaCl, 3 mM EDTA and 0.05% Tween 20). Initially, a stock solution of heme (hemin, Frontiers Scientific, Logan, Utah) at 1 mM was prepared in 0.05 N NaOH. Heme was further diluted to 10 μM in the running buffer and 8 two-fold dilutions (10-0.078 μM) were injected at flow rate of 30 μl/min. The association and dissociation phases of the interaction were monitored for 5 min and 10 min, respectively. […]
Heme was diluted at 10 μM in HBS-EP and injected at flow rate of 30 ul/min. The association and dissociation phases of the interaction were monitored for 5 min and 10 min, respectively. […]
The kinetic rate constants obtained at different temperatures were used to build Arrhenius plots. The values of slopes of the Arrhenius plots were calculated by using a linear regression analysis of the experimental kinetic data and substituted in Equations 1-4,
Where the “slope”=∂1n(ka/d/∂(1/T), and where Ea is the activation energy. The enthalpy, entropy, and Gibbs free energy changes characterizing the association phase were calculated using Equations 2-4, […]

[4] = system: more than 9,000 human proteins; test: Protein microarray (ProtoArray) reactivity; type: binding
Trastuzumab [5] = test: Absorbance spectroscopy of heme with Trastuzumab; type: binding
Protocol: Absorbance spectra were measured by using UNICAM Helios b, UV-vis spectrophotometer. […] After addition of each heme aliquot and incubation for 2 min in dark, the absorbance spectra in the wavelength range 350-700 nm were recorded. The spectra were scanned at rate of 300 nm/min. All measurements were performed at room temperature, in quartz cuvettes with optical path of 1 cm.

Trastuzumab [6] = test: Quenching of intrinsic tryptophan fluorescence of Trastuzumab by heme; type: binding
Protocol: The Ab was diluted to 0.1 μM in PBS and titrated with increasing concentrations (0, 0.01, 0.025, 0.05, 0.1, 0.2, 0.4, 0.8, 1.6 and 3.2 μM) of heme, added as aliquots from a stock solution. A wavelength of 295 nm was used to selectively excite tryptophan residues. Excitation and emission slits were both adjusted to 10 nm. […] Quartz cuvette with 1 cm optical path was used in the experiment. All measurements were performed at room temperature.

Trastuzumab [7] = test: Circular dichroism of Trastuzumab exposed to heme; conditions: Ab 1 μM, heme 10 μM
Protocol: The CD spectra measurements were performed with JASCO-J710 Spectrometer. Data pitch and slit were both set to 1 nm. The data were recorded at scan speed on 10 nm/min in the range of 260-185 nm. […] The Ab was exposed or not to 10 μM concentration of heme. All spectra were acquired at 20° C. in quartz cuvettes with 1 mm optical path.

SKBR3 cells = test: Direct and complement-mediated cytotoxicity (WST-1), SKBR3; type: cell-based, human; conditions: identical concentrations as introduced by heme-bound Trastuzumab
Protocol: (§1) Cells were treated on 96-wells plates with flat bottom and low evaporation lid (Coster, USA). MDA-MB-231 or SKBR3 breast cancer cells were plated and left for 2 hours to adhere. […] The Ab was diluted to a final concentration of 3.7 μg/ml. As a source of complement, baby rabbit complement (AbD Serotec) was added to obtain a dilution of ×5 (MDA-MB-231 cells) or ×8 (SKBR3 cells). As control, heat inactivated fetal calf serum was added at the same ratios. To evaluate the amount of alive cells, WST-1 dye (Roche) was added after 5 days of incubation at 37° C. The absorbance at 450 nm and 690 nm was read after 2 hours incubation at 37° C.

MDA-MB-231 cells = test: Direct and complement-mediated cytotoxicity (WST-1), MDA-MB-231; type: cell-based, human; conditions: identical concentrations as introduced by heme-bound Trastuzumab
Protocol: as §1

Compound: CC1=C(CCC(=O)O)c2cc3[n-]c(cc4nc(cc5[n-]c(cc1n2)c(CCC(=O)O)c5C)C(CCC(=O)O)=C4C)c(CCC(=O)O)c3C.[Fe+3] [Fe (III) coproporphyrin I]
- induction of polyreactivity of Trastuzumab (Trastuzumab [1]): appearance of novel antigen-binding specificities

Compound: C=CC1=C(C)c2cc3[n-]c(cc4[n-]c(cc5nc(cc1n2)C(C)=C5C=C)c(C)c4CCC(=O)O)c(CCC(=O)O)c3C.[Zn+2] [ZnPP, Zn (II) protoporphyrin IX, reference compound]
- induction of oligomerization / self-association of Trastuzumab (Trastuzumab [2]): failed to induced antibody homophilicity or oligomerization
- induction of antibody homophilicity by heme analog (immobilized Trastuzumab): failed to induced antibody homophilicity or oligomerization

Compound: iron protoporphyrin IX [heme]
- Kd (Trastuzumab [3]; SPR, heme to immobilized Trastuzumab): 100 nM
- portion of the Ab binding heme (Trastuzumab [3]; immobilized Fab fragments, Fc fragments, heme 10 μM): preferential binding to the immobilized Fab portion
- binding to human proteins [4]: able to bind to numerous human proteins, but to a lower extent
- rank of potential to induce polyreactivity (Trastuzumab [1]): lowest potential
- change in absorbance spectrum (Trastuzumab [5]): increased absorbance intensity of heme in high and low energy regions of the spectrum
- quenching of tryptophan fluorescence (Trastuzumab [6]): concentration-dependent decrease in the fluorescence signal
- change of circular dichroism spectra (Trastuzumab [7]): Considerable changes of the circular dichroism ellipticity curves
- cell proliferation, heme alone (SKBR3 cells): no negative impact on the cell proliferation
- cell proliferation, heme alone (MDA-MB-231 cells): no negative impact on the cell proliferation

Compound: CC1=Cc2cc3[n-]c(cc4nc(cc5[n-]c(cc1n2)c(C)c5CCC(=O)O)C(CCC(=O)O)=C4C)cc3C.[Fe] [Fe (III) deuteroporphyrin IX]
- induction of polyreactivity of Trastuzumab (Trastuzumab [1]): appearance of novel antigen-binding specificities
- rank of potential to induce polyreactivity (Trastuzumab [1]): most potent inducer of polyreactivity

Compound: CCC1=C(C)C2=NC1=Cc1c(C)c(CC)c3[n]1[Fe][n]1c(c(C)c(CCC(=O)O)c1=CC1=NC(=C3)C(C)=C1CCC(=O)O)=C2 [Fe (III) mesoporphyrin IX]
- induction of polyreactivity of Trastuzumab (Trastuzumab [1]): appearance of novel antigen-binding specificities
- induction of oligomerization / self-association of Trastuzumab (Trastuzumab [2]): able to induce oligomerization of Trastuzumab
